Earlier results on one compound are cited in patent publication US6699900B2, “Hydrophilic and lipophilic silibinin pro-forms” (priority 2001, dated 2004).

The structures appear in SMILES notation.

For this series the following is noted: Merck Index, Reference 8680.

With `COc1cc(C2Oc3cc([C@H]4Oc5cc(O)cc(O)c5C(=O)[C@@H]4O)ccc3OC2CO)ccc1O` (stereo partly shown) [silibinin], the “solubility in aqueous or lipophilic phases” value is given as “not readily soluble”.
